Source: the supplement of paper PMC10307832

Assays:
Experiment in all cases: relative viability (nuclei count vs DMSO), 5 days (fraction); higher = more cells survive
XMD8-85 = compound: CN1CCN(CC1)C2=CC(=C(C=C2)NC3=NC=C4C(=N3)N(C5=CC=CC=C5C(=O)N4C)C)OC [XMD8-85]
Method in brief: (§1)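 Following overnight incubation at 37 °C, lung cancer cell lines in 1536-well plates were pinned with five library-drug doses (not always all listed) in √10 steps on vehicle-anchored plates. The cells then spent 5 days without medium change before a combined fix, permeabilisation and Hoechst stain, 4× imaging and MetaXpress nuclear counts. Viability is the treated-to-vehicle ratio of nuclei, taken as the median across plates. Only plates with control CV below 25% and at least one doubling passed.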

4EGI-1 = compound: O=C(O)C(Cc1ccccc1[N+](=O)[O-])=NNc1nc(-c2ccc(Cl)c(Cl)c2)cs1 (mixture of isomers) [4EGI-1]
Method in brief: as §1

XMD8-85 + Trametinib = compound: CN1CCN(CC1)C2=CC(=C(C=C2)NC3=NC=C4C(=N3)N(C5=CC=CC=C5C(=O)N4C)C)OC [XMD8-85] + CC(=O)Nc1cccc(-n2c(=O)n(C3CC3)c(=O)c3c(Nc4ccc(I)cc4F)n(C)c(=O)c(C)c32)c1 [Trametinib] (partner 0.02 µM)
Method in brief: (§2)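 Lung cancer cell lines, seeded in 1536-well plates, were treated the following day by pin tool with a single drug or with five library-drug doses (not always all listed) in √10 steps on top of a fixed anchor-drug dose. Cells were fixed and nuclei stained in one step after 5 days, and nuclei were counted. Relative viability is the nuclei count for treated wells divided by that for vehicle wells, reported as medians of duplicate plates.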

4EGI-1 + Navitoclax = compound: O=C(O)C(Cc1ccccc1[N+](=O)[O-])=NNc1nc(-c2ccc(Cl)c(Cl)c2)cs1 (mixture of isomers) [4EGI-1] + CC1(C)CCC(c2ccc(Cl)cc2)=C(CN2CCN(c3ccc(C(=O)NS(=O)(=O)c4ccc(N[C@H](CCN5CCOCC5)CSc5ccccc5)c(S(=O)(=O)C(F)(F)F)c4)cc3)CC2)C1 [Navitoclax] (partner 0.5 µM)
Method in brief: as §2

| Cell Line | relative viability (XMD8-85; 0.08 µM) | relative viability (XMD8-85; 0.253 µM) | relative viability (XMD8-85; 0.8 µM) | relative viability (XMD8-85; 2.53 µM) | relative viability (XMD8-85; 8 µM) | relative viability (4EGI-1; 0.5 µM) | relative viability (4EGI-1; 1.581 µM) | relative viability (4EGI-1; 5 µM) | relative viability (4EGI-1; 15.81 µM) | relative viability (4EGI-1; 50 µM) | relative viability (XMD8-85 + Trametinib; first compound 0.08 µM) | relative viability (XMD8-85 + Trametinib; first compound 0.253 µM) | relative viability (XMD8-85 + Trametinib; first compound 0.8 µM) | relative viability (XMD8-85 + Trametinib; first compound 2.53 µM) | relative viability (XMD8-85 + Trametinib; first compound 8 µM) | relative viability (4EGI-1 + Navitoclax; first compound 0.5 µM) | relative viability (4EGI-1 + Navitoclax; first compound 1.581 µM) | relative viability (4EGI-1 + Navitoclax; first compound 5 µM) | relative viability (4EGI-1 + Navitoclax; first compound 15.81 µM) | relative viability (4EGI-1 + Navitoclax; first compound 50 µM) |
| --- | --- | --- | --- | --- | --- | --- | --- | --- | --- | --- | --- | --- | --- | --- | --- | --- | --- | --- | --- | --- |
| BEN | 1.03 | 0.956 | 0.901 | 0.7 | 0.523 | 1.15 | 1.07 | 1.06 | 0.98 | 0.728 | 0.866 | 1 | 0.983 | 0.829 | 0.681 | 0.0672 | 0.0661 | 0.0652 | 0.0675 | 0.0686 |
| SK-MES-1 | 1.03 | 1.03 | 0.938 | 0.951 | 0.556 | 1.09 | 0.944 | 0.983 | 0.759 | 0.691 | 0.57 | 0.616 | 0.49 | 0.428 | 0.304 | 1.18 | 1.27 | 1.19 | 1.01 | 0.949 |
| NCI-H1623 | 0.906 | 0.891 | 0.88 | 0.986 | 0.833 | 1.17 | 0.85 | 1.07 | 0.783 | 0.843 |  |  |  |  |  |  |  |  |  |  |
| IA-LM | 0.84 | 0.923 | 0.872 | 0.723 | 0.489 | 1.03 | 0.848 | 0.923 | 0.152 | 0.0847 |  |  |  |  |  | 0.889 | 0.751 | 0.444 | 0.112 | 0.0676 |
| CAL-12T | 0.936 | 1.06 | 0.871 | 0.908 | 0.654 | 1.03 |  | 0.963 | 0.878 | 0.518 | 0.32 | 0.404 |  | 0.302 | 0.379 | 1.1 |  | 1.17 | 1.23 | 0.861 |
| ABC-1 | 0.879 | 0.87 | 1.17 | 0.952 | 0.517 | 1.08 | 0.819 | 1.1 | 0.525 | 0.195 |  |  |  |  |  |  |  |  |  |  |
| A549 | 0.954 | 1 | 1.05 | 1.05 | 0.995 | 1.03 | 0.792 | 0.977 | 0.929 | 0.369 |  |  |  |  |  | 1.29 | 1.2 | 1.24 | 1.17 | 0.217 |
| NCI-H650 | 0.989 | 1.01 | 0.948 | 0.841 | 0.556 | 1.12 |  | 1.03 | 0.959 | 0.753 | 0.904 | 1 | 0.977 | 0.94 | 0.601 |  |  |  |  |  |
| NCI-H2342 | 0.873 | 1.07 | 1.02 | 1.02 | 1.06 | 1.13 | 0.889 | 0.989 | 1.03 | 0.869 | 0.747 | 0.807 | 0.859 | 0.922 | 0.991 |  |  |  |  |  |
| NCI-H1563 | 1.06 | 0.925 | 0.904 | 0.951 | 0.88 | 1.1 | 0.875 | 0.976 | 0.893 | 0.625 |  |  |  |  |  |  |  |  |  |  |
| LCLC-103H | 0.929 | 1.03 | 1.05 | 1.04 | 0.88 | 1.01 | 0.929 | 1.01 | 0.972 | 0.696 | 0.728 | 0.637 | 0.683 | 0.676 | 0.522 |  |  |  |  |  |
| Calu-6 | 1.02 | 0.962 | 1.08 | 0.96 | 0.834 | 1.03 | 0.887 | 1.1 | 0.951 | 0.618 |  |  |  |  |  | 0.909 | 0.759 | 1.01 | 0.847 | 0.213 |
| NCI-H1299 | 1.06 | 1.03 | 1.01 | 0.98 | 0.81 | 1.02 | 1.01 | 1.01 | 1.03 | 0.828 |  |  |  |  |  | 1.1 | 1.04 | 1.04 | 0.986 | 1.08 |
| EBC-1 | 0.944 | 1.06 | 0.937 | 0.816 | 0.386 | 1.11 | 1.05 | 1.11 | 0.726 | 0.296 |  |  |  |  |  | 0.525 | 0.402 | 0.624 | 0.308 | 0.142 |
| NCI-H1703 | 0.934 | 1.06 | 1.06 | 0.967 | 0.822 | 1.34 | 1.08 | 1.12 | 0.928 | 0.571 |  |  |  |  |  | 1.54 | 1.06 | 1.6 | 1.19 | 0.427 |
| NCI-H661 | 1 | 1.01 | 0.963 | 1.05 | 0.903 | 0.975 | 0.911 | 0.974 | 0.583 | 0.467 | 0.548 | 0.536 | 0.583 | 0.653 | 0.43 |  |  |  |  |  |
| NCI-H1648 | 0.827 | 0.73 | 0.7 | 0.829 | 0.869 | 0.831 | 0.958 | 0.968 | 0.808 | 0.509 | 0.493 | 0.416 | 0.397 | 0.337 | 0.354 |  |  |  |  |  |
| NCI-H358 | 0.881 | 0.914 | 0.977 | 0.984 | 0.691 | 1.01 | 0.767 | 0.998 | 0.629 | 0.16 | 0.111 | 0.139 | 0.128 | 0.11 | 0.132 |  |  |  |  |  |
| SW 900 | 0.791 | 1.04 | 0.759 | 0.861 | 0.465 | 1.05 | 0.755 | 0.89 | 0.642 | 0.213 | 0.813 | 0.746 | 0.935 |  | 0.759 |  |  |  |  |  |
| NCI-H522 | 0.94 | 1.11 | 0.947 | 1.09 | 0.677 | 1.01 | 0.878 | 0.99 | 0.922 | 0.69 | 0.821 | 0.653 | 0.739 | 0.698 | 0.537 |  |  |  |  |  |
